In ChEMBL document CHEMBL4680378, “Discovery of a Lead Compound for Specific Inhibition of Type I Collagen Production in Fibrosis” (ACS Med Chem Lett, 2021):
Activity calls are given as the source filed them. The calls are words filed in the database; no cut-off is given here.

What was measured:
[1] = molecular target: La-related protein 6 (Homo sapiens) (UniProt Q9BRS8); assay: Inhibition of LARP6 La module (unknown origin) binding with collagen 5' stem loop mRNA at > 2.5 uM by gel mobility shift assay; conditions: dose microM >2.5
Chain of La-related protein 6 (Homo sapiens) (Q9BRS8 whole entry, looked up, the tested form may be a part): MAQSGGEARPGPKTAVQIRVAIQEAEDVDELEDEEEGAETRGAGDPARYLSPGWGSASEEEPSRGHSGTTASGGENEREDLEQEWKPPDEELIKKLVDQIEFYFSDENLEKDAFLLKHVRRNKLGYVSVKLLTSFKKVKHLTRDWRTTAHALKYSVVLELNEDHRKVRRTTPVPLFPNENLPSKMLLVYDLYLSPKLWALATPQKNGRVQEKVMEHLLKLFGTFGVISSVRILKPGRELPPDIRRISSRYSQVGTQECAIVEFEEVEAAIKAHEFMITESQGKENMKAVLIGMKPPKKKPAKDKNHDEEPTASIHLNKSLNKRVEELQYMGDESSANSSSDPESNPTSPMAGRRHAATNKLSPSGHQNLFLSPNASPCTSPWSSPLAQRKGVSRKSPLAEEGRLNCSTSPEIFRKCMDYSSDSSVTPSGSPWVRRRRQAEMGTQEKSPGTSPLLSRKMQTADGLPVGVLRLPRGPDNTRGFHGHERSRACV

[2] = Inhibition of type 1 collagen alpha2 polypeptide secretion in human lung fibroblasts incubated for 18 hrs followed by addition of fresh medium and measured after 3 hrs by Western blot analysis; format: functional, tissue-based; conditions: Primary lung fibroblast
[3] = Inhibition of type 1 collagen alpha1 polypeptide secretion in human lung fibroblasts incubated for 18 hrs followed by addition of fresh medium and measured after 3 hrs by Western blot analysis; format: functional, tissue-based; conditions: Primary lung fibroblast
[4] = molecular target: La-related protein 6 (Homo sapiens) (UniProt Q9BRS8); assay: Inhibition of LARP6 La domain (unknown origin) binding with collagen 5' stem loop mRNA at > 1 uM by gel mobility shift assay; conditions: dose microM >1
[5] = molecular target: La-related protein 6 (Homo sapiens) (UniProt Q9BRS8); assay: Inhibition of LARP6 La domain (unknown origin) binding with collagen 5' stem loop mRNA assessed as decrease in La domain bound band intensity at 1 to 3 uM by gel mobility shift assay; conditions: dose 1-3 µM
[6] = molecular target: La-related protein 6 (Homo sapiens) (UniProt Q9BRS8); assay: Inhibition of LARP6 La module (unknown origin) binding with collagen 5' stem loop mRNA assessed as decrease in La module monomer bound band intensity at 1 to 50 uM by gel mobility shift assay; conditions: dose 1-50 µM
[7] = Cytotoxicity against human lung fibroblasts assessed as effect on cell viability; format: tissue-based; conditions: primary lung fibroblast
Primary lung fibroblast [8] = assay: Inhibition of type 1 collagen alpha2 polypeptide secretion in human lung fibroblasts at 4 uM incubated for 18 hrs followed by addition of fresh medium and measured after 3 hrs by Western blot analysis; format: functional, tissue-based
Primary lung fibroblast [9] = assay: Inhibition of type 1 collagen alpha1 polypeptide secretion in human lung fibroblasts at 5 uM incubated for 18 hrs followed by addition of fresh medium and measured after 3 hrs by Western blot analysis; format: functional, tissue-based
[10] = molecular target: La-related protein 6 (Homo sapiens) (UniProt Q9BRS8); assay: Inhibition of LARP6 La module (unknown origin) binding with collagen 5' stem loop mRNA assessed as decrease in La module dimer bound band intensity at 1 to 50 uM by gel mobility shift assay; conditions: dose 1-50 µM
Primary lung fibroblast [11] = assay: Inhibition of type 1 collagen secretion in human lung fibroblasts at 5 ug/ml incubated for 18 hrs followed by addition of fresh medium and measured after 3 hrs by Western blot analysis; format: functional, tissue-based; conditions: dose 5.0 µg/ml

inhibition [1] | inhibition [4] | inhibition [5] | inhibition [6] | inhibition [10] | SMILES | IC50 [2] [µM] | IC50 [3] [µM] | Activity [7] | inhibition (Primary lung fibroblast [8]) | inhibition (Primary lung fibroblast [9]) | inhibition (Primary lung fibroblast [11])
Active | Active | Active | Active | Active | CCCCCCCCCCCCCC(=O)N[C@H]1C[C@@H](C(N)=O)N(c2cc(N3CCN(C(=O)c4cc(C)cc(C)c4)CC3)ncn2)C1 | 3.1 | 4.4 | Non-Toxic | Active | Active | –
– | – | – | – | – | CCCCCCCCCCCCCC(=O)N[C@H]1C[C@@H](C(N)=O)N(c2cc(N3CCN(C(=O)CCCc4ccccc4)CC3)ncn2)C1 | – | – | – | – | – | Active
